Test system: iNKT hybridoma 24.7
Test: iNKT cell activation in co-culture of BMDCs and iNKT hybridoma 24.7, IL-2 by ELISA
Format: cell-based
Details: incubated with BMDCs 4 hours, then iNKT hybridoma 24.7 for 24 hours
Procedure: Experiments were performed to determine whether fractions of B. fragilis sphingolipids are immunostimulatory (agonists) to iNKT cells. Lipid fractions were extracted from BF membranes, incubated with bone marrow dendritic cells (BMDCs) for 4 hours, and then co-incubated with iNKT hybridoma 24.7 for 24 hours. IL-2 was measured by ELISA as a readout of iNKT cell activation. KRN7000 refers to the known immunostimulatory alpha-GC. Cer-SL refers to the ceramide sphingolipid fraction. PE-SL refers to the phosphoethanolamine sphingolipid fraction. GL-SL refers to the glycosphingolipid fraction. C17 minor refers to alpha-GC having a C17 ceramide chain length. […] As expected, KRN7000 was stimulatory.
Further studies confirmed that alpha-GC-Bf717 was detectable only in fecal samples from BFWT mice and not in samples from BFΔSPT mice. The estimated yield of alpha-GC-Bf717 was about 1 ng per gram of fecal pellet. To confirm that alpha-GC-Bf717 had antagonistic activity, co-cultures similar to those described above for bulk GL-SL fractions were performed.

CCCCCCCCCCCCCCCCCCCCCCCCCC(=O)N[C@@H](CO[C@H]1O[C@H](CO)[C@H](O)[C@H](O)[C@H]1O)[C@H](O)[C@H](O)CCCCCCCCCCCCCC [KRN7000]
iNKT cell activation (IL-2): stimulatory

Reference: patent US10329315B2, “Glycosphingolipids and methods of use thereof” (The Brigham and Women's Hospital, Inc., priority 2012, dated 2019)
